Measurements: patent US20260365670A1, “EGFR INHIBITORS AND USES THEREOF” (DIZAL (JIANGSU) PHARMACEUTICAL CO., LTD., priority 2022, published 2026)
Like-named read-outs stand apart in the source and are kept apart here.

Key:
EGFR[T790M/C797S/L858R] = biological target: T1, EGFR[T790M/C797S/L858R] (Homo sapiens, UniProt P00533, C797S/L858R/T790M); experiment: Inhibition of EGFR[T790M/C797S/L858R] biochemical enzymatic activity (HTRF); settings: 1 mM ATP
T1 construct: purchased Carna Bio
Description: (§1) Biological Example 1: Inhibition of EGFR WT and Mutant Biochemical Enzymatic Activity
(§2) The inhibition potency of compounds against these enzymes was assessed using Homogenous Time Resolved Fluorescence approach (HTRF, CisBio. Cat No. 62TKOPEJ).
(§3) Inhibitory effects of the compounds were determined by measuring the enzymatic activity of EGFR enzyme phosphorylates 1 μM TK Substrate-biotin in the presence of 1 mM adenosine-5′-triphosphate (ATP) and varying concentrations of the test compound. The enzyme reaction buffer contains 5 mM MgCl2, 1 mM MnC12, 0.01% CHAPS, 1 mM dithiothreitol (DTT), 0.5% dimethylsulfoxide (DMSO), and 1× supplemented enzymatic buffer. The WT and mutant EGFR enzymes (SignalChem) were added to plates containing inhibitors, followed by activation of the kinase reaction by addition of ATP and peptide substrates. After incubation for 1 h at room temperature, the reaction was stopped by the addition of the detection reagent mix containing EDTA. The fluorescence was measured at 615 nm and 665 nm, respectively with excitation wavelength at 320 nm. The calculated signal ratio of 665 nm/615 nm is proportional to the kinase activity. The concentration of compound producing 50% inhibition of the respective kinase (IC50) was calculated using four-parameter logistic fit with XL-FIT.

EGFR L858R/T790M = biological target: T2, EGFR L858R/T790M (Homo sapiens, UniProt P00533, L858R/T790M); experiment: Inhibition of EGFR L858R/T790M biochemical enzymatic activity (HTRF); settings: 1 mM ATP
T2 construct: purchased Carna Bio
T2 sequence (P00533 25-1210 T790M/L858R): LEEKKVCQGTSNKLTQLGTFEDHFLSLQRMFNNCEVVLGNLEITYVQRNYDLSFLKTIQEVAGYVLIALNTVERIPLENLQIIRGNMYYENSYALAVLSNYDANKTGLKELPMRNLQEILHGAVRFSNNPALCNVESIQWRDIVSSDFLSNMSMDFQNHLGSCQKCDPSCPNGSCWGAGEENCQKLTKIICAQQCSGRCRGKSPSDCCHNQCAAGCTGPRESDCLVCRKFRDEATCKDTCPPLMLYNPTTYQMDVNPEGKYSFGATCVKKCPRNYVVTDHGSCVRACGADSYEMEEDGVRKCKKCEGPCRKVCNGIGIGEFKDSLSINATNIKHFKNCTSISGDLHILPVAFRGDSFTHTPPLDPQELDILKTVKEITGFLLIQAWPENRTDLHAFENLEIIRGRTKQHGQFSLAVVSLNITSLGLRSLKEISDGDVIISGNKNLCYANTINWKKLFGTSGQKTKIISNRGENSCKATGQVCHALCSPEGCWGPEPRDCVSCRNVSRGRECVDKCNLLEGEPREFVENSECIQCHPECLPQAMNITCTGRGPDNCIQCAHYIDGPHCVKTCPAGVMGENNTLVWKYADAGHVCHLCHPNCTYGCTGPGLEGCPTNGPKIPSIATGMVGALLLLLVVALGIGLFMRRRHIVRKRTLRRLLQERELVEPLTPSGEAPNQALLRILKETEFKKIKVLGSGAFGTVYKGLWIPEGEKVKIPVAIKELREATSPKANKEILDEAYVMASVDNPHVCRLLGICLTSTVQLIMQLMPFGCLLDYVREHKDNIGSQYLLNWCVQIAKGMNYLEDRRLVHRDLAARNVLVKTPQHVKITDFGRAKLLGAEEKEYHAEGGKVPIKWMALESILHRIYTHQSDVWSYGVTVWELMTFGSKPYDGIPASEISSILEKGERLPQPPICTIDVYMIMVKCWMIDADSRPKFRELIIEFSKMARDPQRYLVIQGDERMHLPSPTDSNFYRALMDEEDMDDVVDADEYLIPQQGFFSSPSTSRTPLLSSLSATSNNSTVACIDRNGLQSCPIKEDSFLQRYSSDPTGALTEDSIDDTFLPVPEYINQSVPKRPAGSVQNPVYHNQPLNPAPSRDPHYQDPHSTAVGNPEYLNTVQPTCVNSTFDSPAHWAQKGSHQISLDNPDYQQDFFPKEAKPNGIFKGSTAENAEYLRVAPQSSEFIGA
Description: as §1, §2, §3

EGFR L858R = biological target: T3, EGFR L858R (Homo sapiens, UniProt P00533, L858R); experiment: Inhibition of EGFR L858R biochemical enzymatic activity (HTRF); settings: 1 mM ATP
T3 construct: purchased Carna Bio
Description: as §1, §2, §3

EGFR Exon19Del/T790M = biological target: T4, EGFR Exon19Del/T790M (Homo sapiens, UniProt P00533, DEL746-750/T790M); experiment: Inhibition of EGFR Exon19Del/T790M biochemical enzymatic activity (HTRF); settings: 1 mM ATP
T4 construct: purchased Carna Bio
T4 sequence (P00533 with tags, fused parts or gaps DEL746-750/T790M limits assumed): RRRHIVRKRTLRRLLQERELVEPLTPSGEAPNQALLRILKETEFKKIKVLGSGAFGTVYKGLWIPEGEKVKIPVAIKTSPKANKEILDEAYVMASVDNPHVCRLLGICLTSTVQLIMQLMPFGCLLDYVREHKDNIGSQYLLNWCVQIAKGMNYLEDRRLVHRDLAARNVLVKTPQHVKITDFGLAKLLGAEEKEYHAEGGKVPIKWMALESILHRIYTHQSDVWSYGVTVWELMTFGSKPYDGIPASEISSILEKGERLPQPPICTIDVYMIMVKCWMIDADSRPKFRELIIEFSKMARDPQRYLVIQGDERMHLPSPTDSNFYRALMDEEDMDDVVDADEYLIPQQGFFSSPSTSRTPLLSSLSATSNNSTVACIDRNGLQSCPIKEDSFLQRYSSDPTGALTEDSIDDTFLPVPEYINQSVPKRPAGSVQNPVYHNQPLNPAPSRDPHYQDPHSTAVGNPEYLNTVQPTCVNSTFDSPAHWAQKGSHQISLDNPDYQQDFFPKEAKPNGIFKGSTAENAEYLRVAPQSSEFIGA
Description: as §1, §2, §3

EGFR (C797S L858R) = biological target: T5, EGFR (C797S L858R) (Homo sapiens, UniProt P00533, C797S/L858R); experiment: Inhibition of EGFR (C797S L858R) biochemical enzymatic activity (HTRF); settings: 1 mM ATP
T5 construct: purchased signalchem
Description: as §1, §2, §3

EGFR wild type = biological target: T6, EGFR wild type (Homo sapiens, UniProt P00533); experiment: Inhibition of EGFR wild type biochemical enzymatic activity (HTRF); settings: 1 mM ATP
T6 construct: purchased Carna Bio
T6 sequence (P00533 25-1210): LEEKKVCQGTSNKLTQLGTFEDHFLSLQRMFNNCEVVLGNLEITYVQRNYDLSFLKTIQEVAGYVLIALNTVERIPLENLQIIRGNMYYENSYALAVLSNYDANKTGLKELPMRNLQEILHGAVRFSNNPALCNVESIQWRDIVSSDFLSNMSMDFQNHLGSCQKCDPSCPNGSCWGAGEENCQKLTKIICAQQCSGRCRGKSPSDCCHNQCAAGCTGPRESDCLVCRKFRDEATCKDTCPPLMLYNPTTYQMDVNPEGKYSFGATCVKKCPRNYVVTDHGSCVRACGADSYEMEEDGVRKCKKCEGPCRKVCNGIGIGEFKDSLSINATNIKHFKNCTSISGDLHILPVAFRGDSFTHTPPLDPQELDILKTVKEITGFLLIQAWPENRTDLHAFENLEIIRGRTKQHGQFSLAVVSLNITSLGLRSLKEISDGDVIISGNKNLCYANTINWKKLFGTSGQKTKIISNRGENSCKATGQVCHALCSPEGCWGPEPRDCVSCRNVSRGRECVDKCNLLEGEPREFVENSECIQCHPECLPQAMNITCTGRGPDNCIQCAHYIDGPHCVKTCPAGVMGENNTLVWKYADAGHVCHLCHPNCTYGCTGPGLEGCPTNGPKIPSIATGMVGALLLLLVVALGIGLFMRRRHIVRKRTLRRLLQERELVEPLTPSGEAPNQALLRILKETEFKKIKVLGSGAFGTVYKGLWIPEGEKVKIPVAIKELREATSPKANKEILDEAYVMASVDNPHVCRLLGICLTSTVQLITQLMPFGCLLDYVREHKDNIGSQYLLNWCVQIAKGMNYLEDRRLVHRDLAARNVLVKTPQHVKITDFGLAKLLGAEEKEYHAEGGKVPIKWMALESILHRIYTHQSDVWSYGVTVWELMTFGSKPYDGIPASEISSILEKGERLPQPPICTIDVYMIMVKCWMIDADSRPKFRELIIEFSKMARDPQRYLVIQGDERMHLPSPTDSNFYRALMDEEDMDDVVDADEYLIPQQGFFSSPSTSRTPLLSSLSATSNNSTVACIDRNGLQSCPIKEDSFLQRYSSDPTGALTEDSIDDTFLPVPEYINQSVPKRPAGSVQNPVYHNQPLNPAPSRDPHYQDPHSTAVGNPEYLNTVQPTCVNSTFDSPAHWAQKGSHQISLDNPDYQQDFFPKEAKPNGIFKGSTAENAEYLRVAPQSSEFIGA
Description: as §1, §2, §3

EGFR (d746-750 C797S) = biological target: T7, EGFR (d746-750 C797S) (Homo sapiens, UniProt P00533, C797S/DEL746-750); experiment: Inhibition of EGFR (d746-750 C797S) biochemical enzymatic activity (HTRF); settings: 1 mM ATP
T7 construct: purchased signalchem
T7 sequence (P00533 with tags, fused parts or gaps DEL746-750/C797S limits assumed): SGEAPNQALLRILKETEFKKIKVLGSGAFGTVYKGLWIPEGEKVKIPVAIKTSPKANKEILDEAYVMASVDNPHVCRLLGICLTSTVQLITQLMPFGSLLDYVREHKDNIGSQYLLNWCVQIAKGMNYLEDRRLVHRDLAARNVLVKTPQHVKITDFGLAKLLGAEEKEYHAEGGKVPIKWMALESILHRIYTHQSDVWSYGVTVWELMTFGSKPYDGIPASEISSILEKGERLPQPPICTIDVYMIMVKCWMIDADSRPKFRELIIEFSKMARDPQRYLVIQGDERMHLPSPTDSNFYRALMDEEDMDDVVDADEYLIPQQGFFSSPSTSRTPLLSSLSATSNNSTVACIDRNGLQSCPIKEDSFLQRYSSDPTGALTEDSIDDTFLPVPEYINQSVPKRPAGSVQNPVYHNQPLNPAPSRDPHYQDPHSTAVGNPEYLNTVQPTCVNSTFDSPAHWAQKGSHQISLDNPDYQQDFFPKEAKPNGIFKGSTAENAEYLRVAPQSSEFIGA
Description: as §1, §2, §3

EGFR Exon19Del = biological target: T8, EGFR Exon19Del (Homo sapiens, UniProt P00533, DEL746-750); experiment: Inhibition of EGFR Exon19Del biochemical enzymatic activity (HTRF); settings: read-out: IC50 @Del19
T8 construct: purchased Carna Bio
T8 sequence (P00533 with tags, fused parts or gaps DEL746-750 limits assumed): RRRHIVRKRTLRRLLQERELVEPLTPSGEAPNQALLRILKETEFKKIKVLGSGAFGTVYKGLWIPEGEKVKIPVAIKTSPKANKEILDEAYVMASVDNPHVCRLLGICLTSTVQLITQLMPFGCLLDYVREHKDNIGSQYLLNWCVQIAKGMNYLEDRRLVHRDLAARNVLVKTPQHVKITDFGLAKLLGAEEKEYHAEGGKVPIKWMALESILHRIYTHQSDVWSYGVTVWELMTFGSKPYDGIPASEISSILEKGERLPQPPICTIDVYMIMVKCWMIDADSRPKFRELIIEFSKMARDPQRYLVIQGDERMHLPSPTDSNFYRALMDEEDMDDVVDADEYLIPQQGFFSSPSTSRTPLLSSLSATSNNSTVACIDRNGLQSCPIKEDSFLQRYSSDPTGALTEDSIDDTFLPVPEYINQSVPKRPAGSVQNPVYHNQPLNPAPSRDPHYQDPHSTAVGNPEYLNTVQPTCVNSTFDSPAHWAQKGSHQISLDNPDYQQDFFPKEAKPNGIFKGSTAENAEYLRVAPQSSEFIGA
Description: as §1, §2, §3

[1] = biological target: T9, EGFR[T790M/C797S/d746-750] (Homo sapiens, UniProt P00533, C797S/DEL746-750/T790M); experiment: Inhibition of EGFR[T790M/C797S/d746-750] biochemical enzymatic activity (HTRF)
T9 construct: purchased Carna Bio
T9 sequence (P00533 with tags, fused parts or gaps DEL746-750/T790M/C797S limits assumed): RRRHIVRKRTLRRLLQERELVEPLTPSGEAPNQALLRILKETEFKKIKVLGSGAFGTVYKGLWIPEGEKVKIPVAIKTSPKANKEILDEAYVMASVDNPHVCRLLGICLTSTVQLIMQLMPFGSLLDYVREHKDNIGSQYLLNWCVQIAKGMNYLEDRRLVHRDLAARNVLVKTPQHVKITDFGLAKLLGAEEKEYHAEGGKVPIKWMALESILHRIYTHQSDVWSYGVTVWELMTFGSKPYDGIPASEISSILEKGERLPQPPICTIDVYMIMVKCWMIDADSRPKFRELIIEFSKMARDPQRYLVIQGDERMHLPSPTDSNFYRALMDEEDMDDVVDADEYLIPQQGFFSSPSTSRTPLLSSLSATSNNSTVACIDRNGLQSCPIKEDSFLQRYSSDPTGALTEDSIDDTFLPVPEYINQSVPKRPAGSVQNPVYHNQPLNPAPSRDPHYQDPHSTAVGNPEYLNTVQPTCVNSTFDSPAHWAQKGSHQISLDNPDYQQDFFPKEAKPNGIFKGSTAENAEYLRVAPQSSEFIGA
Description: as §1, §2, §3

[2] = test system: Ba/F3 cells expressing EGFR mutations; experiment: Cell proliferation assay, Ba/F3 cells expressing EGFR mutations (CellTiter-Glo, 72 hours); format: cell-based
Description: (§4) Biological Example 2: Cell Proliferation Assays
(§5) Ba/F3 cells expressing EGFR mutations were seeded in 384-well plates at 5000 cells/well in RPMI1640 medium containing […]. PC-9 at 500 cells/well was seeded into 384-well plates in RPMI1640 medium with 10% FBS. After overnight incubation, the assay plates were dosed with compounds at a series of concentrations. Alongside dosing the assay plates, the day 0 plate was processed using CellTiter-Glo® Luminescent Cell Viability Assay (Promega) to measure the number of viable cells (G0). The assay plates were further incubated for 72 hours and the number of viable cells (G3) was measured. The percentage of proliferation was calculated as: […]=100×(G3 value of sample well−G0 value)/(G3 value of DMSO control−G0 value). The concentration of compound producing 50% proliferation inhibition (GI50) was further calculated in best-fit curves using XLFit software. N/A=not available.

PC-9 = experiment: Cell proliferation assay, PC-9 cells (CellTiter-Glo, 72 hours); format: cell-based; settings: PC9 cells
Description: as §4, §5

[3] = EGFR[T790M/C797S/L858R], 1 h at room temperature, read-out: IC50 @T790M- C797S - L858R
[4] = EGFR L858R/T790M, 1 h at room temperature, read-out: IC50 @L858R-T790M
[5] = 1 h at room temperature, read-out: IC50 @L858R
[6] = BaF3 cells, EGFR DEL19 - C797S, read-out: GI50 DEL19 - C797S/BaF3
[7] = BaF3 cells, EGFR DEL19 - T790-C797S, read-out: GI50 DEL19 - T790-C797S/BaF3
[8] = BaF3 cells, EGFR L858R - T790-C797S, read-out: GI50 L858R - T790-C797S/BaF3
[9] = BaF3 cells, EGFR L858R - T790M, read-out: GI50 L858R - T790M/BaF3
[10] = BaF3 cells, EGFR L858R, read-out: GI50 L858R/BaF3
[11] = EGFR DEL19 - T790M, read-out: GI50 DEL19 - T790M
[12] = EGFR Exon19Del/T790M, 1 h at room temperature, read-out: IC50 @Del19-T790M
[13] = EGFR (C797S L858R), 1 h at room temperature, read-out: IC50 @L858-C797S
[14] = EGFR (d746-750 C797S), 1 h at room temperature, read-out: IC50 @Del19-C797S
[15] = EGFR Exon19Del, 1 mM ATP, 1 h at room temperature
[16] = EGFR[T790M/C797S/d746-750], 1 mM ATP, 1 h at room temperature, read-out: IC50 @T790M - C797S - Del19
[17] = EGFR wild type, 1 h at room temperature, read-out: IC50 @WT

SMILES	IC50 (EGFR[T790M/C797S/L858R]; [3])	IC50 (EGFR L858R/T790M; [4])	IC50 (EGFR L858R; [5])	GI50 [2, 6]	GI50 [2, 7]	GI50 [2, 8]	GI50 [2, 9]	GI50 [2, 10]	GI50 [2, 11]	IC50 (EGFR Exon19Del/T790M; [12])	IC50 (EGFR (C797S L858R); [13])	IC50 (EGFR (d746-750 C797S); [14])	IC50 (EGFR Exon19Del; [15])	IC50 [1, 16]	IC50 (EGFR wild type; [17])	also measured
CN(C)CCC1CN(c2ccc3nc4n(c3c2)C23CCC(CN(CCOc5c(cnn5C)-c5cc(cn(C)c5=O)C(=O)N4)C2)C3)C1 (single isomer, unassigned) [Example A95A]																IC50 (EGFR[T790M/C797S/L858R]; EGFR T790M-C797S-L858R, 1 h, room temperature, read-out: IC50 (nM) @T790M- C797S - L858R): > 5000 nM; IC50 (EGFR L858R/T790M; EGFR L858R-T790M, 1 h, room temperature, read-out: IC50 (nM) @L858R-T790M): > 5000 nM; IC50 (EGFR L858R; 1 h, room temperature, read-out: IC50 (nM) @L858R): 4640 nM; IC50 (EGFR Exon19Del/T790M; EGFR Del19-T790M, 1 h, room temperature, read-out: IC50 (nM) @Del19-T790M): > 5000 nM; IC50 (EGFR (C797S L858R); EGFR L858-C797S, 1 h, room temperature, read-out: IC50 (nM) @L858-C797S): > 5000 nM; IC50 (EGFR wild type; EGFR WT, 1 h, room temperature, read-out: IC50 (nM) @WT): > 5000 nM; IC50 (EGFR (d746-750 C797S); EGFR Del19-C797S, 1 h, room temperature, read-out: IC50 (nM) @Del19-C797S): 899 nM; IC50 (EGFR Exon19Del; EGFR Del19, 1 mM ATP, 1 h, room temperature): 0.864 µM; IC50 ([1]; EGFR T790M-C797S-Del19, 1 mM ATP, 1 h, room temperature, read-out: IC50 (nM) @T790M - C797S - Del19): > 5000 nM
C[C@@H]1CCCOc2c(cnn2C)-c2cc(cn(C3CC3)c2=O)C(=O)Nc2nc3ccc(N4CCN(C)CC4)cc3n2C1 [Example A15, (11R)-26-cyclopropyl-5,11-dimethyl-16-(4-methylpiperazin-1-yl)-7-oxa-4,5,13,20,22,26-hexaazapentacyclo[22.3.1.0^{2,6}.0^{13,21}.0^{14,19}]octacosa-1(28),2(6),3,14,16,18,20,24-octaene-23,27-dione]																GI50 ([2]; Mus musculus, BaF3, 72 h, BaF3 cells, EGFR DEL19-C797S, CellTiter-Glo, read-out: DEL19-C797S/BaF3 GI50): 0.495 µM; GI50 ([2]; Mus musculus, BaF3, 72 h, BaF3 cells, EGFR DEL19-T790-C797S, CellTiter-Glo, read-out: DEL19-T790-C797S/BaF3 GI50): 2.1 µM; GI50 ([2]; Mus musculus, BaF3, 72 h, BaF3 cells, EGFR L858R, CellTiter-Glo, read-out: L858R/BaF3 GI50): 1.39 µM; GI50 ([2]; Mus musculus, BaF3, 72 h, BaF3 cells, EGFR L858R-C797S, CellTiter-Glo, read-out: L858R-C797S/BaF3 GI50): 1.57 µM; GI50 ([2]; Mus musculus, BaF3, 72 h, BaF3 cells, EGFR L858R-T790-C797S, CellTiter-Glo, read-out: L858R-T790-C797S/BaF3 GI50): 4.91 µM; GI50 ([2]; Mus musculus, BaF3, 72 h, BaF3 cells, EGFR L858R-T790M, CellTiter-Glo, read-out: L858R-T790M/BaF3 GI50): 1.55 µM; GI50 ([2]; Mus musculus, BaF3, 72 h, EGFR DEL19-T790M, CellTiter-Glo, read-out: DEL19-T790M GI50): 2.62 µM; GI50 (PC-9; Homo sapiens, PC-9, 72 h, CellTiter-Glo, read-out: PC9 GI50): 2.07 µM
Cc1cc2cc(n1)-c1cnn(C)c1OCCN1CCOCC(C1)n1c(nc3ccccc31)NC2=O (stereo not drawn) [Example B7, 15,21-dimethyl-23,29-dioxa-2,9,11,16,20,21,26-heptaazahexacyclo[24.4.1.1^{13,17}.0^{2,10}.0^{3,8}.0^{18,22}]dotriaconta-3,5,7,9,13(32),14,16,18(22),19-nonaen-12-one]	1090 nM	1960 nM			0.296 µM	0.3 µM	0.723 µM		0.42 µM	109 nM	> 5000 nM	627 nM	1.42 µM	44 nM	> 500 nM	GI50 ([2]; Mus musculus, BaF3, 72 h, BaF3 cells, EGFR DEL19 - C797S, read-out: GI50 DEL19 - C797S/BaF3): 0.346 µM; GI50 ([2]; Mus musculus, BaF3, 72 h, BaF3 cells, EGFR L858R - C797S, read-out: GI50 L858R - C797S/BaF3): 0.334 µM; GI50 ([2]; Mus musculus, BaF3, 72 h, BaF3 cells, EGFR L858R, read-out: GI50 L858R/BaF3): 1.9 µM; GI50 (PC-9; Homo sapiens, PC-9, 72 h, read-out: GI50 PC9): 0.667 µM

Now from value to compound, other results behind:

IC50 (EGFR[T790M/C797S/L858R]; [3])	IC50 (EGFR L858R/T790M; [4])	IC50 (EGFR L858R; [5])	GI50 [2, 6]	GI50 [2, 7]	GI50 [2, 8]	GI50 [2, 9]	GI50 [2, 10]	GI50 [2, 11]	IC50 (EGFR Exon19Del/T790M; [12])	IC50 (EGFR (C797S L858R); [13])	IC50 (EGFR (d746-750 C797S); [14])	IC50 (EGFR Exon19Del; [15])	IC50 [1, 16]	IC50 (EGFR wild type; [17])	SMILES	also measured
> 5000 nM	> 5000 nM	> 5000 nM	0.312 µM	0.321 µM	0.052 µM	0.326 µM	3 µM	0.368 µM	> 5000 nM	> 5000 nM	> 5000 nM	> 5 µM	4640 nM		Cc1cc2cc(n1)-c1cnn(C)c1OCCN1CC3CCC(C3)(C1)n1c(nc3ccc(N4CCC(N5CCOCC5)C4)cc31)NC2=O (single isomer, unassigned) [Example B44A]	GI50 ([2]; BaF3 cells, EGFR L858R - C797S, read-out: GI50 L858R - C797S/BaF3): 0.624 µM; GI50 (PC-9; read-out: GI50 PC9): 1.4 µM
14 nM	37 nM	560 nM	0.024 µM		0.019 µM	0.038 µM	0.081 µM	0.01 µM	21 nM	300 nM	26 nM	0.038 µM	8.2 nM	> 5000 nM	Cc1cc2cc(n1)-c1cnn(C)c1OCCN1CC3CCC(CC3)(C1)n1c(nc3ccc(N4CCC5(CCN(C)CC5)C4)cc31)NC2=O [Example B38]	
